Laboratory results as given in ChEMBL document CHEMBL4813934, “Investigation of Selected Flavonoid Derivatives as Potent FLT3 Inhibitors for the Potential Treatment of Acute Myeloid Leukemia” (J Nat Prod, 2021).

What was measured:
[1] = tested on: MV4-11; assay: Cytotoxicity against human MV4-11 cells assessed as reduction in cell viability measured after 72 hrs by MTT assay; assay type: functional, cell-based; settings: MV4-11, 72 h
[2] = tested on: MOLM-13; assay: Cytotoxicity against human MOLM-13 cells assessed as reduction in cell viability measured after 72 hrs by MTT assay; assay type: functional, cell-based; settings: MOLM-13, 72 h
[3] = molecular target: Receptor-type tyrosine-protein kinase FLT3 (Homo sapiens, UniProt P36888, ITD); assay: Inhibition of recombinant N-terminal GST/His6-tagged human FLT3 ITD mutant (571 to 993 residues) expressed in Sf9 insect cells incubated for 1 hr by LanthaScreen assay
[4] = molecular target: Receptor-type tyrosine-protein kinase FLT3 (Homo sapiens) (UniProt P36888); assay: Inhibition of recombinant His-tagged human FLT3 (564 to 958 residues) expressed in baculovirus expression system at 10 uM using tyr 02 as substrate incubated for 1 hr by Z'-LYTE assay relative to control
[5] = molecular target: Receptor-type tyrosine-protein kinase FLT3 (Homo sapiens, UniProt P36888, D835Y); assay: Inhibition of recombinant His-tagged human FLT3 D835Y mutant (564 to 958 residues) expressed in baculovirus expression system using tyr 02 as substrate incubated for 1 hr by Z'-LYTE assay
[6] = molecular target: T1, Receptor-type tyrosine-protein kinase FLT3 (Homo sapiens, UniProt P36888); assay: Inhibition of recombinant His-tagged human FLT3 (564 to 958 residues) expressed in baculovirus expression system using tyr 02 as substrate incubated for 1 hr by Z'-LYTE assay
T1 sequence (P36888 whole entry): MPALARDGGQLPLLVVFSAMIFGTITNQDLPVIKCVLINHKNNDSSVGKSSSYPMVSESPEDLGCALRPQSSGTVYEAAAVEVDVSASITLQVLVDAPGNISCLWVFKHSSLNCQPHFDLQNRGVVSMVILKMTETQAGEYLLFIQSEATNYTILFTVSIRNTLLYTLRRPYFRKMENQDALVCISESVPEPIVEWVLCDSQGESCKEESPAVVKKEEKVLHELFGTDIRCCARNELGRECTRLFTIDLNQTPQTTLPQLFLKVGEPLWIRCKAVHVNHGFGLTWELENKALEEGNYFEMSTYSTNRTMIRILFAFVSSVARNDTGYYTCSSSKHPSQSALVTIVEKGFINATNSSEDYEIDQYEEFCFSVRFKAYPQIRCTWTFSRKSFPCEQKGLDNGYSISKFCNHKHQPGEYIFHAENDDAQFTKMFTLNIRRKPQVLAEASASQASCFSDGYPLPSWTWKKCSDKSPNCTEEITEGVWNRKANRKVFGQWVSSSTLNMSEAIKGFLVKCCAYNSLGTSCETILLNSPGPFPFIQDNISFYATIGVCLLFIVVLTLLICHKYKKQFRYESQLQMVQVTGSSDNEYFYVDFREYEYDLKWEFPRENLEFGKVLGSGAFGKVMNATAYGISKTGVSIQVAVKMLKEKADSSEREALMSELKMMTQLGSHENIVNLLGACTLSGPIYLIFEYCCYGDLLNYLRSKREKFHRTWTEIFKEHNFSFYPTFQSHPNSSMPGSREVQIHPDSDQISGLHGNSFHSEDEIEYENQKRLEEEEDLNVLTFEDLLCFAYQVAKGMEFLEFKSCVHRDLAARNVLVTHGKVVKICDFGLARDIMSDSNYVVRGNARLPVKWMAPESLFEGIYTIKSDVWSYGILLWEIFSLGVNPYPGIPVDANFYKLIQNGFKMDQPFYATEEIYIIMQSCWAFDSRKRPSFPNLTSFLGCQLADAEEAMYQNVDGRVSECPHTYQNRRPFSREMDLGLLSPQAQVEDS

Row | inhibition [4] [%] | IC50 [6] [nM] | SMILES | IC50 [1] [nM] | IC50 [2] [nM] | IC50 [3] [nM] | IC50 [5] [nM]
1 | > 80 | 1100 | COc1ccc(-c2cc(=O)c3c(O)c(OC)c(OC)cc3o2)cc1O [EUPATORIN] |  |  |  | 
2 | > 80 | 1700 | COc1cc(O)c2c(=O)cc(-c3ccc(O)cc3)oc2c1 [GENKWANIN] |  |  |  | 

Row | SMILES | inhibition [4] [%] | IC50 [6] [nM] | IC50 [1] [nM] | IC50 [2] [nM] | IC50 [3] [nM] | IC50 [5] [nM]
3 | COc1ccc(-c2cc(=O)c3c(O)cc(O)cc3o2)cc1 [ACACETIN] | > 80 | 880 | 6800 | 9100 | 210 | 1000
